Values after ≈ are worked out from the molar mass of the structure shown. Counter-ions that a name gives are not always drawn. Like-named read-outs stand apart in the source and are kept apart here.
Tests used:
H37RvMA = experiment: Tuberculosis Alamar Blue/Resazurin assay (MIC); assay type: cell-based; settings: Mycobacterium tuberculosis, H37RV, read-out: WT H37Rv MTB Activity
E. coli = experiment: Gram negative MIC protocol (OD600, LB, 24 h); settings: Escherichia coli
Protocol: (§1) Overnight bacterial cultures were grown in LB with no added antibiotics at 37° C. with shaking. A 1:1000 dilution of these cultures into LB was exposed to concentration gradients of compounds in 96-well plates (100 μL per well assay volume). Resulting plates were incubated at 37° C. for 24 h without shaking, and OD600 was measured at the end of the incubation. MICs were determined as the lowest concentrations at which OD600 remained at baseline.

A. baumannii = experiment: Gram negative MIC protocol (OD600, LB, 24 h); settings: Acinetobacter baumannii
Protocol: as §1

[1] = read-out: MIC E. coli delta-TolC LB Media, E. coli delta-TolC strain, LB media, 24 h, OD600
[2] = read-out: MIC WT E. coli LB Media, wild-type E. coli, LB media, 24 h, OD600
[3] = read-out: MIC A. baumannii LB Media, A. baumannii, LB media, 24 h, OD600
[4] = read-out: MIC A. baumannii LB Media

Compound	MIC (H37RvMA; WT H37Rv MTB) [µM]	MIC (E. coli; [1]) [µM]	MIC (E. coli; [2]) [µM]	MIC (A. baumannii; [3]) [µM]	MIC (H37RvMA) [µM]	MIC (A. baumannii; [4]) [µM]
CC(C)(C)OC(=O)N1CCC(CCNCc2ccccc2)CC1 [B216, tert-butyl 4-(2-(benzylamino)ethyl) piperidine-1-carboxylate]	> 150	> 300	> 300	> 300	–	–
C[C@@H](Cc1ccccc1)NCc1ccccc1 [B217]	–	> 300	> 300	–	> 150	> 300
O=C1CCC(CCNCc2ccccc2)CC1 [B218, 4-(2-(benzylamino)ethyl) cyclohexanone]	> 150	> 300	> 300	> 300	–	–
CC(/C=C/C1CCCCC1)NCc1ccccc1 (stereo not shown) [B219, (E)-N-benzyl-4-cyclohexylbut-3-en-2-amine]	> 150	> 300	> 300	> 300	–	–
COc1cccc2c1B(O)OC2CNCc1ccccc1 (stereo not shown) [B220, 3-((benzylamino)methyl)-7-methoxybenzo[c][1,2]oxaborol-1(3H)-ol hydrochloride]	> 150	> 300	> 300	> 300	–	–
CC1CCC(CCNCc2ccccc2)CC1 (stereo not shown) [B221]	150 (≈ 34.7 µg/mL)	150 (≈ 34.7 µg/mL)	300 (≈ 69.4 µg/mL)	220 (≈ 50.9 µg/mL)	–	–
c1ccc(CNCCC2CCCCO2)cc1 (stereo not shown) [B222]	> 150	> 150	> 300	> 300	–	–
c1ccc(CNCCN2CCCCC2)cc1 [B223]	> 150	> 150	> 300	> 300	–	–
c1ccc(CNCCC2CCCNC2)cc1 (stereo not shown) [B224]	> 150	> 150	> 300	> 300	–	–
FC(F)(F)c1ccccc1CNCCC1CCCCC1 [B225, 2-cyclohexyl-N-(2-(trifluoromethyl)benzyl)ethanamine hydrochloride]	> 150	> 150	> 300	300	–	–
Oc1ccccc1CNCCC1CCCCC1 [B226, 2-((2-cyclohexylethylamino)methyl)phenol]	33 (≈ 7.7 µg/mL)	33 (≈ 7.7 µg/mL)	54 (≈ 12.6 µg/mL)	54 (≈ 12.6 µg/mL)	–	–
CC(C)c1ccccc1CNCCC1CCCCC1 [B227, 2-cyclohexyl-N-(2-isopropylbenzyl)ethanamine hydrochloride]	150	12	170	170	–	–
CCc1ccccc1CNCCC1CCCCC1 [B228, 2-cyclohexyl-N-(2-ethylbenzyl)ethanamine hydrochloride]	91	20	170	300	–	–
c1ccc(-c2ccccc2CNCCC2CCCCC2)cc1 [B229, N-(biphenyl-2-ylmethyl)-2-cyclohexylethanamine hydrochloride]	33	7	170	96	–	–
c1csc(-c2ccccc2CNCCC2CCCCC2)c1 [B230, 2-cyclohexyl-N-(2-(thiophen-2-yl)benzyl)ethanamine hydrochloride]	55	4	96	96	–	–
c1cncc(-c2ccccc2CNCCC2CCCCC2)c1 [B231, 2-cyclohexyl-N-(2-(pyridin-3-yl)benzyl)ethanamine hydrochloride]	> 150	54	300	> 300	–	–
c1ccc(Oc2ccccc2CNCCC2CCCCC2)cc1 [B232, 2-cyclohexyl-N-(2-phenoxybenzyl)ethanamine hydrochloride]	91	17	170	96	–	–
c1ccc(C2CC2)c(CNCCC2CCCCC2)c1 [B233, 2-cyclohexyl-N-(2-cyclopropylbenzyl)ethanamine hydrochloride]	91	10	300	170	–	–
c1ccc(-c2ccc3ccccc3c2)c(CNCCC2CCCCC2)c1 [B234, 2-cyclohexyl-N-(2-(naphthalen-2-yl)benzyl)ethanamine hydrochloride]	55	10	> 300	31	–	–
Nc1ccccc1CNCCC1CCCCC1 [B235, 2-((2-cyclohexylethylamino)methyl)aniline hydrochloride]	> 150	96	96	> 300	–	–
c1coc(-c2ccccc2CNCCC2CCCCC2)c1 [B236, 2-cyclohexyl-N-(2-(furan-2-yl)benzyl)ethanamine hydrochloride]	150	17	54	300	–	–
CN(C)c1ccccc1CNCCC1CCCCC1 [B237, 2-((2-cyclohexylethylamino)methyl)-N,N-dimethylaniline hydrochloride]	> 150	170	> 300	> 300	–	–
c1ccc(-c2cccc3ccccc23)c(CNCCC2CCCCC2)c1 [B238, 2-cyclohexyl-N-(2-(naphthalen-1-yl)benzyl)ethanamine hydrochloride]	55	10	> 300	54	–	–
CCNC(=O)COc1ccccc1CNC(C)CC1CCCCC1 (stereo not shown) [B239]	> 150	20 (≈ 6.65 µg/mL)	> 150	> 150	–	–
CC(CC1CCCCC1)NCc1ccccc1OCc1nccs1 (stereo not shown) [B240]	150 (≈ 51.7 µg/mL)	7 (≈ 2.41 µg/mL)	> 150	> 150	–	–

Compound	MIC (H37RvMA; WT H37Rv MTB) [µM]	MIC (E. coli; [1]) [µM]	MIC (E. coli; [2]) [µM]	MIC (A. baumannii; [3]) [µM]	MIC (H37RvMA) [µM]	MIC (A. baumannii; [4]) [µM]
Cc1cc(COc2ccccc2CNC(C)CC2CCCCC2)on1 (stereo not shown) [B241]	> 150	4 (≈ 1.37 µg/mL)	150 (≈ 51.4 µg/mL)	> 150	–	–
CCCNC(=O)COc1ccccc1CNC(C)CC1CCCCC1 (stereo not shown) [B242]	> 150	12 (≈ 4.16 µg/mL)	> 150	> 150	–	–
CNC(=O)COc1ccccc1CNC(C)CC1CCCCC1 (stereo not shown) [B243]	> 150	12 (≈ 3.82 µg/mL)	> 150	> 150	–	–
CC(CC1CCCCC1)NCc1ccccc1OCc1cn2ccccc2n1 (stereo not shown) [B244]	150 (≈ 56.6 µg/mL)	3 (≈ 1.13 µg/mL)	91 (≈ 34.4 µg/mL)	150 (≈ 56.6 µg/mL)	–	–
Cc1nonc1COc1ccccc1CNC(C)CC1CCCCC1 (stereo not shown) [B245]	150 (≈ 51.5 µg/mL)	4 (≈ 1.37 µg/mL)	150 (≈ 51.5 µg/mL)	150 (≈ 51.5 µg/mL)	–	–
Cc1nc(COc2ccccc2CNC(C)CC2CCCCC2)oc1C (stereo not shown) [B246]	91 (≈ 32.4 µg/mL)	12 (≈ 4.28 µg/mL)	> 150	> 150	–	–
CC(CC1CCCCC1)NCc1ccccc1OCCCn1c(=O)[nH]c2ccccc21 (stereo not shown) [B247]	> 150	2 (≈ 0.843 µg/mL)	150 (≈ 63.2 µg/mL)	91 (≈ 38.4 µg/mL)	–	–
CC(CC1CCCCC1)NCc1ccccc1OCc1ncnn1C (stereo not shown) [B248]	> 150	20 (≈ 6.85 µg/mL)	> 150	> 150	–	–
CCN(CC)CCOc1ccccc1CNC(C)CC1CCCCC1 (stereo not shown) [B249]	> 150	> 150	> 150	> 150	–	–
CC(CC1CCCCC1)NCc1ccccc1OCCN1CCOCC1 (stereo not shown) [B250]	> 150	12 (≈ 4.33 µg/mL)	> 150	> 150	–	–
CC(CC1CCCCC1)NCc1ccccc1OCCCO (stereo not shown) [B251]	> 150	7 (≈ 2.14 µg/mL)	91 (≈ 27.8 µg/mL)	91 (≈ 27.8 µg/mL)	–	–
COC(=O)c1ccc(COc2ccccc2CNC(C)CC2CCCCC2)o1 (stereo not shown) [B252]	150 (≈ 57.8 µg/mL)	4 (≈ 1.54 µg/mL)	> 150	150 (≈ 57.8 µg/mL)	–	–
COc1ccccc1CNCCC1CCCCC1 [B253, 2-cyclohexyl-N-(2-methoxybenzyl)ethanamine hydrochloride]	> 150	37	150	> 150	–	–
NCc1ccccc1CNCCC1CCCCC1 [B254, N-(2-(aminomethyl)benzyl)-2-cyclohexylethanamine hydrochloride]	> 150	> 150	> 150	> 150	–	–
OCc1ccccc1CNCCC1CCCCC1 [B255]	> 150	84 (≈ 20.8 µg/mL)	> 150	> 150	–	–
CC(=O)Oc1ccccc1CNCCC1CCCCC1 [B256, 2-((2-cyclohexylethylamino)methyl)phenyl acetate]	> 150	150	> 150	> 150	–	–
O=C(O)c1ccccc1CNCCC1CCCCC1 [B257, 2-((2-cyclohexylethylamino)methyl)benzoic acid hydrochloride]	> 150	67	> 150	> 150	–	–
COC(=O)c1ccccc1CNCCC1CCCCC1 [B258, methyl 2-((2-cyclohexylethylamino)methyl)benzoate hydrochloride]	> 150	100	> 150	> 150	–	–
NC(=O)c1ccccc1CNCCC1CCCCC1 [B259, 2-((2-cyclohexylethylamino)methyl)benzamide trifluoroacetate]	–	125	> 150	–	> 150	> 150
CC(CC1CCCCC1)NCc1ccccc1OCCOC1CCCC1 (stereo not shown) [B260]	91 (≈ 32.7 µg/mL)	7 (≈ 2.52 µg/mL)	> 150	> 150	–	–
CC(CC1CCCCC1)NCc1ccccc1OCCOCC1CC1 (stereo not shown) [B261]	150 (≈ 51.8 µg/mL)	4 (≈ 1.38 µg/mL)	> 150	> 150	–	–
CC(CC1CCCCC1)NCc1ccccc1OCCOCC(F)(F)C(F)(F)F (stereo not shown) [B262]	55 (≈ 23.3 µg/mL)	12 (≈ 5.08 µg/mL)	150 (≈ 63.5 µg/mL)	91 (≈ 38.5 µg/mL)	–	–
CC(CC1CCCCC1)NCc1ccccc1OCC(=O)N(C)C1CCCCC1 (stereo not shown) [B263]	91 (≈ 36.5 µg/mL)	3 (≈ 1.2 µg/mL)	> 150	> 150	–	–
CC(CC1CCCCC1)NCc1ccccc1OCCCN1CCOC1=O (stereo not shown) [B264]	> 150	3 (≈ 1.12 µg/mL)	150 (≈ 56.2 µg/mL)	150 (≈ 56.2 µg/mL)	–	–

— patent US11261201B2 (priority 2018, dated 2022)
